Experimental data taken from PubChem BioAssay AID256 (DTP/NCI, 2004).
Inconclusive results and toxic doses are left out. The calls were made as follows: active = survival T/C of 150% or more; inactive = T/C below 125% in these data.

System: CD2F1 mice, L1210 leukemia ip, survival T/C
Experiment: NCI In Vivo Anticancer Drug Screen. Data for tumor model L1210 Leukemia (intraperitoneal) in CD2F1 (CDF1) mice
Details: endpoint: mean survival time, vehicle: saline, higher = longer survival
In short: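 Antitumor effect is scored in animals hosting a serially transplanted tumor. Values compare compound-dosed animals against vehicle-only controls as a simple quotient.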

Measured: T/C

CS(=O)(=O)/C=C(\I)c1ccccc1
inactive: dose: 100.0 mg/kg/injection, schedule: Q01DX009 (ip) 98 % of control | dose: 100.0 mg/kg/injection, schedule: Q04DX003 (ip) 104 % of control | dose: 200.0 mg/kg/injection, schedule: Q01DX009 (ip) 93 % of control | dose: 200.0 mg/kg/injection, schedule: Q04DX003 (ip) 106 % of control | dose: 400.0 mg/kg/injection, schedule: Q01DX009 (ip) 95 % of control | dose: 400.0 mg/kg/injection, schedule: Q04DX003 (ip) 98 % of control
